Source: PMC4630399, “Charge-Based Inhibitors of Amylin Fibrillization and Toxicity” (Journal of Diabetes Research, 2015)
Entries after “also recorded” stand apart in the source; their conditions may differ. Positions of bridges follow the written chain, without caps; N, C: chain ends. Residues, ends and D or L forms follow the SMILES beside them.

Legend:
WT-amylin [1] = target: T1, WT-amylin (Homo sapiens, UniProt P10997); assay: TEM of WT-amylin fibrils formed in presence of inhibitor peptides; type: biochemical; parameters: purchased Biopeptide (San Diego, CA); host or cells: solid-phase synthesis; settings: 80 μM WT-amylin with 160 μM analog, 20 mM sodium phosphate pH 7.4, 1% DMSO, 37°C, 24 h
T1 sequence (P10997 34-70 limits assumed): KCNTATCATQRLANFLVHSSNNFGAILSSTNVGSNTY
Method: (§1) Samples containing 80 μM concentrations of WT-amylin and the three analogs were incubated without agitation at a temperature of 37°C in 20 mM phosphate buffer (pH 7.4). For the inhibition reactions, samples contained WT-amylin at an 80 μM concentration, together with 160 μM of Arg-1, Arg-2, or Mem-T analogs. Aliquots from the reactions were removed after 2 days for TEM imaging. The aliquots were blotted onto carbon-coated 400-mesh Maxtaform copper grids (Ted Pella Inc. Redding, CA) for 1–3 min, followed by negative staining with 1% uranyl acetate. TEM images were recorded on an FEI Tecnai G^2 Spirit BioTwin transmission electron microscope equipped with an AMT XR-40 camera.
Figure 8 TEM images of fibrils formed from 80 μM WT amylin in the presence or absence of inhibitor peptides. (a) WT amylin alone, (b) with 160 μM Arg-1, (c) with 160 μM Arg-2, and (d) with 160 μM Mem-T. Aliquots were removed for TEM imaging 24 h after the fibrillization reactions were started. Reactions were carried out in 20 mM sodium phosphate (pH 7.4), 1% DMSO (v/v), at 37°C.

[2] = ThT assay of fibrillization kinetics, peptides alone; type: physicochemical
Method: (§2) The time course of fibrillization in solution was monitored using 100–200 μL amylin samples, contained in white polystyrene clear bottom 96-well plates (Corning Inc., Corning, NY). Plates were covered with a clear polyester sealing tape (Fisher Scientific, Agawam, MA) to prevent evaporation. Stock solutions of 1.1 mM WT-amylin and inhibitor peptides were prepared in 100% DMSO, which dissolves and disaggregates amylin fibrils, and were stored at −80°C when not in use. Starting from the 1.1 mM stock solutions in 100% DMSO, samples for fibrillization reactions were prepared to contain 20 μM amylin and 10 μM ultrapure ThT, in 20 mM sodium phosphate buffer, pH 7.4, and a final DMSO concentration of 2% (v/v). For experiments using larger 400 μM concentrations of Arg-2 and Mem-T, the solutions were prepared by diluting 100% DMSO stock solutions of 20 mM peptide to a final DMSO concentration of 2% (v/v). Amylin was the last component added to the samples for the kinetic reactions, in order to reduce the dead time for the experiments. The plates were incubated at 25°C without agitation. Fluorescence intensity was recorded at 2 min intervals with excitation at 440 nm and emission at 490 nm on a Fluoroskan Ascent 2.5 fluorescence plate reader. Fibrillization reactions for the peptides alone were performed in triplicate and for analog-peptide inhibition of WT-amylin in duplicate, to estimate experimental uncertainties in kinetic parameters.

WT-amylin [3] = target: T1, WT-amylin; assay: ThT assay, inhibition of WT-amylin fibrillization by analogs added in trans; type: biochemical; parameters: purchased Biopeptide (San Diego, CA); host or cells: solid-phase synthesis; settings: 20 μM WT-amylin; for effect on WT-amylin fibrillization lag time / reduction of WT-amylin fibril elongation rate: 150 mM NaCl; for reduction of WT-amylin fibril elongation rate: analog 0.001 to 120 μM
Method: as §2, with “Starting from the 1.1 mM stock solutions in 100% DMSO, samples for fibrillization reactions were prepared to contain 20 μM amylin and 10 μM ultrapure ThT, in 20 mM sodium phosphate buffer, pH 7.4, and a final DMSO concentration of 2% (v/v).” left out

[4] = TEM of aggregates formed by peptides alone; type: physicochemical; settings: 80 μM peptide, 2 days, 20 mM phosphate pH 7.4, 37°C, no agitation
Method: as §1

[5] = system: WT-amylin cytotoxicity towards MIN6 mouse model of pancreatic β-cells; assay: Protection of MIN6 cells against WT-amylin cytotoxicity (Alamar Blue)
Method: The stock solutions were diluted with FBS-free DMEM and sonicated continuously for 5 min at 75% amplitude before use. FBS was subsequently added to a concentration of 15% (v/v), giving final amylin concentrations of 40, 80, and 160 μM. The final DMSO concentration for all cytotoxicity experiments was 1% (v/v).
Cytotoxicity was measured using the mouse insulinoma 6 (MIN6) cell line model of β-pancreatic cells, which were a gift from Dr. Anil Rustgi (University of Pennsylvania). Cells were seeded at a density of 20,000 per 100 μL in black clear-bottom 96-well plates. The cells were grown in DMEM with 15% FBS, 25 mM glucose, 2 mM L-glutamine, […] sodium pyruvate, 55 μM β-mercaptoethanol, 1000 units/mL penicillin, and 100 μg/mL streptomycin, for 20 h at 37°C in a humidified incubator with 5% CO2. […] The cells were incubated for another 24 h followed by the addition of 10% (v/v) of the redox indicator dye Alamar Blue at the concentration supplied by the manufacturer (Invitrogen). Fluorescence, due to the reduction of Alamar Blue by viable cells, was measured after 6 h, using excitation and emission wavelengths of 544 and 590 nm, respectively. Cell viability was calculated from the ratio of Alamar Blue fluorescence in treated to untreated cells. Uncertainties were calculated as the SEMs of triplicate measurements.

[6] = 20 μM peptide, 150 mM NaCl, pH 7.4, 25°C
[7] = 400 μM peptide, 150 mM NaCl, pH 7.4, 2% DMSO, 25°C, ThT, triplicate
[8] = 400 μM peptide, pH 7.4, 2% DMSO, 25°C

| SMILES | TEM of WT-amylin fibrils formed with inhibitor (WT-amylin [1]) | fibrillization detected (ThT) [2, 6] | fibril elongation rate [2, 7] | fibrillization lag time [2, 7] | fibrillization detected (ThT) ([2]; 400 μM peptide, absence of salt) | fibrillization detected (ThT) [2, 8] | fibrillization detected (ThT) ([2]; 400 μM peptide, physiological salt concentrations and above) | reduction in elongation rates relative to arginine-peptides (WT-amylin [3]) | effect on WT-amylin fibrillization lag time (WT-amylin [3]) | reduction of WT-amylin fibril elongation rate (WT-amylin [3]) | salt dependence of inhibition of elongation rate (WT-amylin [3]; varying NaCl) | salt dependence of lag time shortening (WT-amylin [3]; varying NaCl) | aggregate morphology by TEM [4] | protection against WT-amylin cytotoxicity (overall) ([5]; MIN6 cells, 80 μM WT-amylin, up to 2 : 1 inhibitor : WT-amylin) | fibrillization of peptide on its own (overall) ([2]; ThT, all conditions tested) | protection against WT-amylin cytotoxicity ([5]; 160 μM analog : 80 μM WT-amylin (2 : 1)) |
| --- | --- | --- | --- | --- | --- | --- | --- | --- | --- | --- | --- | --- | --- | --- | --- | --- |
| CC[C@H](C)[C@H](NC(=O)[C@H](C)NC(=O)CNC(=O)[C@H](Cc1ccccc1)NC(=O)[C@H](CC(N)=O)NC(=O)[C@H](CC(N)=O)NC(=O)[C@H](CO)NC(=O)[C@H](CO)NC(=O)[C@H](Cc1c[nH]cn1)NC(=O)[C@H](CC(=O)O)NC(=O)[C@H](CC(=O)O)NC(=O)[C@H](CC(=O)O)NC(=O)[C@H](CC(N)=O)NC(=O)[C@H](C)NC(=O)[C@H](CC(=O)O)NC(=O)[C@H](CCCNC(=N)N)NC(=O)[C@H](CC(=O)O)NC(=O)[C@@H](NC(=O)[C@H](C)NC(=O)[C@@H]1CSSC[C@H](NC(=O)[C@@H](N)CCCCN)C(=O)N[C@@H](CC(N)=O)C(=O)N[C@@H]([C@@H](C)O)C(=O)N[C@@H](C)C(=O)N[C@@H]([C@@H](C)O)C(=O)N1)[C@@H](C)O)C(=O)N[C@@H](CC(C)C)C(=O)N[C@@H](CO)C(=O)N[C@@H](CO)C(=O)N[C@H](C(=O)N[C@@H](CC(N)=O)C(=O)N[C@H](C(=O)NCC(=O)N[C@@H](CO)C(=O)N[C@@H](CC(N)=O)C(=O)N[C@H](C(=O)N[C@@H](Cc1ccc(O)cc1)C(N)=O)[C@@H](C)O)C(C)C)[C@@H](C)O [Mem-T] (H-KCNTATCATDRDANDDDHSSNNFGAILSSTNVGSNTY-NH2; disulfide 2-7 (inferred); N-terminus assumed) | indistinguishable from those formed with WT-amylin alone | failed to fibrillize | 6.1 ± 1.4 × 10^−6 min^−1 | 10,000 min | only a very weak signal for fibrils was detected | weak fibrillization | Fibrillization was stimulated | only about half of that for the arginine-peptides | decrease at high concentrations; also recorded: causes a reduction in lag times at high concentrations of the analog (>10 μM); also recorded: decreases the lag times | 4 fold | salt effects on elongation rates are reduced close to the uncertainties of the measurements | shows a strong salt concentration dependence | only detected amorphous aggregates with nonfibrillar morphologies; also recorded: few if any fibrils | failed to protect against WT-amylin cytotoxicity | – | – |
| CC(C)C[C@H](NC(=O)[C@H](CCCNC(=N)N)NC(=O)[C@H](CCC(N)=O)NC(=O)[C@@H](NC(=O)[C@H](C)NC(=O)[C@@H]1CSSC[C@H](NC(=O)[C@@H](N)CCCCN)C(=O)N[C@@H](CC(N)=O)C(=O)N[C@@H]([C@@H](C)O)C(=O)N[C@@H](C)C(=O)N[C@@H]([C@@H](C)O)C(=O)N1)[C@@H](C)O)C(=O)N[C@@H](C)C(=O)N[C@@H](CC(N)=O)C(=O)N[C@@H](Cc1ccccc1)C(=O)N[C@@H](CC(C)C)C(=O)N[C@H](C(=O)N[C@@H](Cc1c[nH]cn1)C(=O)N[C@@H](CO)C(=O)N[C@@H](CO)C(=O)N[C@@H](CC(N)=O)C(=O)N[C@@H](CC(N)=O)C(=O)N[C@@H](CCCNC(=N)N)C(=O)N[C@@H](CCCNC(=N)N)C(=O)N[C@@H](CCCNC(=N)N)C(=O)N[C@@H](CCCNC(=N)N)C(=O)N[C@@H](CC(C)C)C(=O)N[C@@H](CO)C(=O)N[C@@H](CO)C(=O)N[C@H](C(=O)N[C@@H](CC(N)=O)C(=O)N[C@H](C(=O)NCC(=O)N[C@@H](CO)C(=O)N[C@@H](CC(N)=O)C(=O)N[C@H](C(=O)N[C@@H](Cc1ccc(O)cc1)C(N)=O)[C@@H](C)O)C(C)C)[C@@H](C)O)C(C)C [Arg-2] (H-KCNTATCATQRLANFLVHSSNNRRRRLSSTNVGSNTY-NH2; disulfide 2-7 (inferred); N-terminus assumed) | somewhat fewer fibrils and a greater amount of short fibrils | failed to fibrillize | – | – | – | still failed to fibrillize | – | – | increased with increasing concentrations | 8–10 fold | A very similar effect is seen; also recorded: more effective at physiological salt concentration or higher than in the absence of salt | – | only detected amorphous aggregates with nonfibrillar morphologies; also recorded: few if any fibrils | – | did not form fibrils under any of the conditions tested; also recorded: did not form fibrils even at high concentrations of the peptide and salt | protects against cytotoxicity |
